For one data set, the system named is Ebola virus (EBOV). Type of data set: cell-based.
For data set [1], the system named is 293T cells transfected with Ebola GP. Type of data set: cell-based, human.

As for `CCCCC[C@@H](O)[C@H]1C(=O)O[C@H](C)[C@@H](O)/C=C/C=C/C=C/C=C/C=C(\C)[C@@H](O)C[C@H](O)C[C@H](O)C[C@H](O)C[C@H](O)C[C@H](O)C[C@@H]1O` [filipin], the “general cytotoxic effect, trypan blue exclusion” value in the data set with Vero E6 cells is listed as “cells were shown to be viable”. Further, in the data set on Ebola virus (EBOV), the “EBOV infection, viral titer 48 hour post infection” value is reported as “significant inhibition of EBOV infection” and the “virus production when cells recover in medium 4 h after treatment before infection” value is “could produce large amounts of virus”.
On to methyl-β-cyclodextrin, for which, in data set [1], the “association of Ebola GP with rafts (detergent insoluble fraction) after pre-treatment” value is given as “almost complete removal of Ebola GP from rafts”.
Consider nystatin, for which the “general cytotoxic effect, trypan blue exclusion” value in the data set on Vero E6 cells was “cells were shown to be viable”.

The values above are taken from patent US20060099225A1 (priority 2004, published 2006).
